Results: article PMC5216056 (Nature Communications, 2017)

Tests used:
[1] = target: T1, mCB1R (Mus musculus, UniProt P47746); assay: biochemical; type: binding; conditions: mouse brain membranes; read-out: pKi ± SEM mCB1R (converted)
T1 construct: from tissue; host or cells: brain of male C57BL/6J mice

[2] = target: hCB2R (Homo sapiens, UniProt P34972); set-up: expressed in transfected cells; host or cells: Flp-In-293 (Invitrogen #R750-07), pcDNA5/FRT; conditions: hCB2R; for ΔLogR GIRK / ΔLogR GTPγS / ΔLogR cAMP / ΔLogR pERK / ΔLogR β-AR: reference CP55940; for RE GIRK / RE GTPγS / RE cAMP / RE pERK / RE β-AR: relative effectiveness
Sequence of hCB2R (P34972 whole entry): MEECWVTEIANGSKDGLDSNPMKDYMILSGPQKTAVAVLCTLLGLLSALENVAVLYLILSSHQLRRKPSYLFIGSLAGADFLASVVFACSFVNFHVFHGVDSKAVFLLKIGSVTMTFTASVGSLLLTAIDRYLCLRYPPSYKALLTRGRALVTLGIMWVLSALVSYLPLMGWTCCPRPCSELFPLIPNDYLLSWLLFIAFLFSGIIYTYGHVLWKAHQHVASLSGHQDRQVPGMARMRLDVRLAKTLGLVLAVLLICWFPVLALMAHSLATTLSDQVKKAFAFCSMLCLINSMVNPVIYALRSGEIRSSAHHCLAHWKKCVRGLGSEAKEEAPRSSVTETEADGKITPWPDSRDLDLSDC

T1 sequence (P47746 whole entry): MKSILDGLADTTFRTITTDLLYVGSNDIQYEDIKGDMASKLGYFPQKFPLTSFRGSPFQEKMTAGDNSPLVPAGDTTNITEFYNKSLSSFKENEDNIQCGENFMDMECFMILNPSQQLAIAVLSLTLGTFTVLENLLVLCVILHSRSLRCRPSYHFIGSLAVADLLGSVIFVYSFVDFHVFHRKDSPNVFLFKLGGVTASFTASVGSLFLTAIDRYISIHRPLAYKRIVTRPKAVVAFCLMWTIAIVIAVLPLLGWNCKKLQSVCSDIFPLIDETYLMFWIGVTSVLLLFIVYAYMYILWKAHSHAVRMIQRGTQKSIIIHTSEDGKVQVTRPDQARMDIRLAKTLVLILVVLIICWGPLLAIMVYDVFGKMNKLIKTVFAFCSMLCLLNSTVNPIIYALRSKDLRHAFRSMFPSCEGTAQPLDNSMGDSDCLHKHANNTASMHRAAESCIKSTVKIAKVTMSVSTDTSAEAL

## CCCCC/C=C\C/C=C\C/C=C\C/C=C\CCCC(=O)OC(CO)CO [2-AG, 2-arachidonoyl glycerol]
[1]
  Ki: 102 nM
[2]
  GIRK-GTPγS bias factor (BF): 154.53
  GIRK-GTPγS ΔΔlogR: 2.19 ± 0.44
  GIRK-cAMP bias factor (BF): 178.65
  GIRK-cAMP ΔΔlogR: 2.25 ± 0.21
  GTPγS-cAMP bias factor (BF): 1.16
  GTPγS-cAMP ΔΔlogR: 0.06 ± 0.46
  LogR GIRK: 6.40
  LogR GTPγS: 4.63
  LogR cAMP: 6.99
  LogR pERK: 6.37
  LogR β-AR: 5.9
  pERK-GIRK bias factor (BF): 0.06
  pERK-GIRK ΔΔlogR: -1.2 ± 0.29
  pERK-GTPγS bias factor (BF): 9.68
  pERK-GTPγS ΔΔlogR: 0.99 ± 0.5
  pERK-cAMP bias factor (BF): 11.19
  pERK-cAMP ΔΔlogR: 1.05 ± 0.31
  β-AR-GIRK bias factor (BF): 0.07
  β-AR-GIRK ΔΔlogR: -1.14 ± 0.19
  β-AR-GTPγS bias factor (BF): 11.27
  β-AR-GTPγS ΔΔlogR: 1.05 ± 0.45
  β-AR-cAMP bias factor (BF): 13.03
  β-AR-cAMP ΔΔlogR: 1.12 ± 0.23
  β-AR-pERK bias factor (BF): 1.16
  β-AR-pERK ΔΔlogR: 0.07 ± 0.3
  ΔLogR GIRK: -1.47
  ΔLogR GTPγS: -3.65
  ΔLogR cAMP: -3.72
  ΔLogR pERK: -2.67
  ΔLogR β-AR: -2.6
  RE GIRK: 0.03
  RE GTPγS: 0.0002
  RE cAMP: 0.0002
  RE pERK: 0.002
  RE β-AR: 0.003

## CCCCC/C=C\C/C=C\C/C=C\C/C=C\CCCC(=O)NCCO [Anandamide, N-arachidonoylethanolamine]
[2]
  GIRK-GTPγS bias factor (BF): 2.57
  GIRK-GTPγS ΔΔlogR: 0.41 ± 0.65
  GIRK-cAMP bias factor (BF): 26.36
  GIRK-cAMP ΔΔlogR: 1.42 ± 0.34
  GTPγS-cAMP bias factor (BF): 10.26
  GTPγS-cAMP ΔΔlogR: 1.01 ± 0.41
  LogR GIRK: 4.53
  LogR GTPγS: 4.54
  LogR cAMP: 5.96
  LogR pERK: 6.03
  LogR β-AR: 5.54
  pERK-GIRK bias factor (BF): 2.14
  pERK-GIRK ΔΔlogR: 0.33 ± 0.43
  pERK-GTPγS bias factor (BF): 5.50
  pERK-GTPγS ΔΔlogR: 0.74 ± 0.66
  pERK-cAMP bias factor (BF): 56.36
  pERK-cAMP ΔΔlogR: 1.75 ± 0.37
  β-AR-GIRK bias factor (BF): 2.37
  β-AR-GIRK ΔΔlogR: 0.38 ± 0.37
  β-AR-GTPγS bias factor (BF): 6.10
  β-AR-GTPγS ΔΔlogR: 0.79 ± 0.62
  β-AR-cAMP bias factor (BF): 62.52
  β-AR-cAMP ΔΔlogR: 1.80 ± 0.29
  β-AR-pERK bias factor (BF): 1.11
  β-AR-pERK ΔΔlogR: 0.04 ± 0.39
  ΔLogR GIRK: -3.33
  ΔLogR GTPγS: -3.74
  ΔLogR cAMP: -4.76
  ΔLogR pERK: -3 ± 0.32
  ΔLogR β-AR: -2.96
  RE GIRK: 0.005
  RE GTPγS: 0.0002
  RE cAMP: 0.00002
  RE pERK: 0.001
  RE β-AR: 0.001
